Laboratory results: ChEMBL document CHEMBL5380851, “"Magic Chloro": Profound Effects of the Chlorine Atom in Drug Discovery” (J Med Chem, 2023)

Experiment: Dissociation constant, pKa of the compound
Work on `Clc1ccncc1` yielded a pKa of 3.83. With `Clc1cccnc1` the pKa was 2.81. `Clc1ccccn1` [2-CHLOROPYRIDINE] gave a pKa of 0.49.
